#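 Briefly, cells in 96-well plates were exposed to five compound concentrations for 48 h, and endpoints were estimated by linear interpolation. Here, GI50 denotes the concentration required for 50% inhibition of growth. TGI marks complete inhibition of growth.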
# Experiments:
# Experiment in all cases: inhibition of tumour cell growth, NCI panel, 48 h
# U251 CNS = test system: U251 CNS
# MDA-MB-435 = test system: MDA-MB-435
# OVCAR-8 ovarian = test system: OVCAR-8 ovarian
# COLO 205 colon = test system: COLO 205 colon
# CCRF-CEM leukemia = test system: CCRF-CEM leukemia
# TK-10 renal = test system: TK-10 renal
# A498 renal = test system: A498 renal
# BT-549 breast = test system: BT-549 breast
# RXF 393 renal = test system: RXF 393 renal
# M14 melanoma = test system: M14 melanoma
# RPMI-8226 leukemia = test system: RPMI-8226 leukemia
# CAKI-1 renal = test system: CAKI-1 renal
# HS 578T breast = test system: HS 578T breast
# SF-295 CNS = test system: SF-295 CNS
# IGROV1 ovarian = test system: IGROV1 ovarian
# HT29 colon = test system: HT29 colon
# HOP-92 NSCLC = test system: HOP-92 NSCLC
# NCI-H522 lung = test system: NCI-H522 lung
# HCT-116 colon = test system: HCT-116 colon
# EKVX NSCLC = test system: EKVX NSCLC
# 786-0 renal = test system: 786-0 renal
# UO-31 renal = test system: UO-31 renal
# SK-MEL-2 melanoma = test system: SK-MEL-2 melanoma
# HOP-62 NSCLC = test system: HOP-62 NSCLC
# SK-OV-3 ovarian = test system: SK-OV-3 ovarian
# NCI-H226 lung = test system: NCI-H226 lung
# OVCAR-5 ovarian = test system: OVCAR-5 ovarian
# NCI-H460 lung = test system: NCI-H460 lung
# SNB-19 CNS = test system: SNB-19 CNS
# PC-3 prostate = test system: PC-3 prostate
# T-47D breast = test system: T-47D breast
# HCT-15 colon = test system: HCT-15 colon
# UACC-257 melanoma = test system: UACC-257 melanoma
# HL-60(TB) leukemia = test system: HL-60(TB) leukemia
# MOLT-4 leukemia = test system: MOLT-4 leukemia
# SN12C renal = test system: SN12C renal
# SNB-75 CNS = test system: SNB-75 CNS
# DU-145 prostate = test system: DU-145 prostate
# MALME-3M melanoma = test system: MALME-3M melanoma
# SK-MEL-28 melanoma = test system: SK-MEL-28 melanoma
# NCI-H23 lung = test system: NCI-H23 lung
# NCI/ADR-RES ovarian = test system: NCI/ADR-RES ovarian
# UACC-62 melanoma = test system: UACC-62 melanoma
# SF-539 CNS = test system: SF-539 CNS
# OVCAR-4 ovarian = test system: OVCAR-4 ovarian
# MDA-MB-231 breast = test system: MDA-MB-231 breast
# SK-MEL-5 melanoma = test system: SK-MEL-5 melanoma
# LOX IMVI melanoma = test system: LOX IMVI melanoma
# HCC-2998 colon = test system: HCC-2998 colon
# A549 NSCLC = test system: A549 NSCLC
# OVCAR-3 ovarian = test system: OVCAR-3 ovarian
# ACHN renal = test system: ACHN renal
# K-562 leukemia = test system: K-562 leukemia
# KM12 colon = test system: KM12 colon
# MCF7 breast = test system: MCF7 breast
# SR leukemia = test system: SR leukemia
# SF-268 CNS = test system: SF-268 CNS
# SW-620 colon = test system: SW-620 colon
compound,measurement,setting,value
Nc1ccc(-c2ccc(-c3nc4cc(Cl)c(Cl)cc4[nH]3)cc2)cc1,GI50,U251 CNS,12 µM
same,TGI,U251 CNS,> 53.1 µM
same,GI50,MDA-MB-435,0.199 µM
same,TGI,MDA-MB-435,> 84.7 µM
same,GI50,OVCAR-8 ovarian,14.5 µM
same,TGI,OVCAR-8 ovarian,> 92.9 µM
same,GI50,COLO 205 colon,0.0953 µM
same,TGI,COLO 205 colon,> 37.7 µM
same,GI50,CCRF-CEM leukemia,0.508 µM
same,TGI,CCRF-CEM leukemia,> 52.7 µM
same,GI50,TK-10 renal,1.63 µM
same,TGI,TK-10 renal,37.4 µM
same,GI50,A498 renal,18 µM
same,TGI,A498 renal,> 70.7 µM
same,GI50,BT-549 breast,27.4 µM
same,TGI,BT-549 breast,> 100 µM
same,GI50,RXF 393 renal,5.71 µM
same,TGI,RXF 393 renal,38.8 µM
same,GI50,M14 melanoma,0.0456 µM
same,TGI,M14 melanoma,> 37.1 µM
same,GI50,RPMI-8226 leukemia,1.85 µM
same,TGI,RPMI-8226 leukemia,38.4 µM
same,GI50,CAKI-1 renal,0.353 µM
same,GI50,HS 578T breast,12 µM
same,TGI,HS 578T breast,82.1 µM
same,GI50,SF-295 CNS,0.419 µM
same,GI50,IGROV1 ovarian,12.1 µM
same,TGI,IGROV1 ovarian,> 100 µM
same,GI50,HT29 colon,1.42 µM
same,TGI,HT29 colon,> 100 µM
same,GI50,HOP-92 NSCLC,23 µM
same,TGI,HOP-92 NSCLC,65 µM
same,GI50,NCI-H522 lung,1.03 µM
same,TGI,NCI-H522 lung,> 80.9 µM
same,GI50,HCT-116 colon,0.503 µM
same,TGI,HCT-116 colon,> 100 µM
same,GI50,EKVX NSCLC,11.6 µM
same,TGI,EKVX NSCLC,> 100 µM
same,GI50,786-0 renal,2.05 µM
same,TGI,786-0 renal,18.9 µM
same,GI50,UO-31 renal,0.674 µM
same,TGI,UO-31 renal,13.3 µM
same,GI50,SK-MEL-2 melanoma,2.46 µM
same,TGI,SK-MEL-2 melanoma,> 100 µM
same,GI50,HOP-62 NSCLC,11.7 µM
same,TGI,HOP-62 NSCLC,> 50.5 µM
same,GI50,SK-OV-3 ovarian,> 79.9 µM
same,TGI,SK-OV-3 ovarian,> 100 µM
same,GI50,NCI-H226 lung,4.07 µM
same,TGI,NCI-H226 lung,> 41.7 µM
same,GI50,OVCAR-5 ovarian,26.2 µM
same,TGI,OVCAR-5 ovarian,> 100 µM
same,GI50,NCI-H460 lung,0.878 µM
same,TGI,NCI-H460 lung,> 31.9 µM
same,GI50,SNB-19 CNS,23.7 µM
same,TGI,SNB-19 CNS,> 100 µM
same,GI50,PC-3 prostate,7.99 µM
same,TGI,PC-3 prostate,> 61.2 µM
same,GI50,T-47D breast,0.275 µM
same,TGI,T-47D breast,> 100 µM
same,GI50,HCT-15 colon,0.406 µM
same,TGI,HCT-15 colon,> 100 µM
same,GI50,UACC-257 melanoma,1.38 µM
same,TGI,UACC-257 melanoma,> 60.7 µM
same,GI50,HL-60(TB) leukemia,8.22 µM
same,TGI,HL-60(TB) leukemia,> 100 µM
same,GI50,MOLT-4 leukemia,1.66 µM
same,TGI,MOLT-4 leukemia,> 85 µM
same,GI50,SN12C renal,17.9 µM
same,TGI,SN12C renal,> 66.7 µM
same,GI50,SNB-75 CNS,16.3 µM
same,TGI,SNB-75 CNS,55.9 µM
same,GI50,DU-145 prostate,2.36 µM
same,TGI,DU-145 prostate,98.4 µM
same,GI50,MALME-3M melanoma,8.02 µM
same,TGI,MALME-3M melanoma,> 63.4 µM
same,GI50,SK-MEL-28 melanoma,13.4 µM
same,TGI,SK-MEL-28 melanoma,> 100 µM
same,GI50,NCI-H23 lung,20.1 µM
same,TGI,NCI-H23 lung,> 100 µM
same,GI50,NCI/ADR-RES ovarian,3.6 µM
same,TGI,NCI/ADR-RES ovarian,> 79.2 µM
same,GI50,UACC-62 melanoma,< 0.0215 µM
same,TGI,UACC-62 melanoma,> 45 µM
same,GI50,SF-539 CNS,1.38 µM
same,TGI,SF-539 CNS,> 51.5 µM
same,GI50,OVCAR-4 ovarian,3.01 µM
same,TGI,OVCAR-4 ovarian,> 100 µM
same,GI50,MDA-MB-231 breast,3.34 µM
same,TGI,MDA-MB-231 breast,> 49.6 µM
same,GI50,SK-MEL-5 melanoma,1.42 µM
same,TGI,SK-MEL-5 melanoma,> 100 µM
same,GI50,LOX IMVI melanoma,0.0361 µM
same,TGI,LOX IMVI melanoma,> 25.8 µM
same,GI50,HCC-2998 colon,0.1 µM
same,TGI,HCC-2998 colon,0.426 µM
same,GI50,A549 NSCLC,1.46 µM
same,TGI,A549 NSCLC,> 100 µM
same,GI50,OVCAR-3 ovarian,0.944 µM
same,GI50,ACHN renal,0.0833 µM
same,TGI,ACHN renal,> 34.8 µM
same,GI50,K-562 leukemia,4.32 µM
same,TGI,K-562 leukemia,> 100 µM
same,GI50,KM12 colon,0.826 µM
same,GI50,MCF7 breast,0.377 µM
same,TGI,MCF7 breast,> 100 µM
same,GI50,SR leukemia,0.181 µM
same,TGI,SR leukemia,45.2 µM
same,TGI,SF-268 CNS,9.24 µM
same,GI50,SW-620 colon,< 0.0313 µM
same,TGI,SW-620 colon,> 100 µM
